Experimental data taken from patent US6384085B1, “Material separated from Ecklonia cava, method for extracting and purifying the same, and use thereof as antioxidants” (Ventree Co., Ltd., priority 2000, dated 2002).

Assays:
[1] = Antioxidative activity: DPPH radical scavenging activity according to the Blois method; type: biochemical; settings: 10 min reaction, absorbance at 517 nm
Method: (§1) The antioxidative activity of the novel compound obtained through the extraction and purification process is evaluated by measuring its radical scavenging activity against 1,1-diphenyl-2-picrylhydrazyl (DPPH), which has free radicals attached thereto, according to the Blois method. A thermal stability of the compound of interest can be evaluated by measuring its antioxidative activity at plural temperature points.
(§2) Dicaval C obtained in Example 3 was measured for antioxidative activity according to the Blois method. For this, an examination was made of the radical scavenging activity of the compound against 1,1-diphenyl-2-picrylhydrazyl (DPPH) to which free radicals were attached. First, 20 mg of DPPH was dissolved in 150 ml of ethanol to prepare a DPPH solution. To 600 μl of the DPPH solution was added 250 μl of dimethylsulfoxide (DMSO), diluted with an appropriate amount of ethanol and shaken for 10 seconds, after which this control was adjusted, in absorbance at 517 nm, from 0.94 to 0.97. To 1 ml of the DPPH solution which was adjusted from 0.94 to 0.97 likewise, each of the samples (μg to mg) was added and then, reacted for 10 min, followed by measuring the absorbance of the solution. The antioxidative activity of each of the samples was determined by the DPPH radical scavenging activity which was represented by a reduced absorbance compared with that of the control.

[2] = Thermal stability: antioxidative activity (DPPH) after heating for 1 hour; type: physicochemical
Method: as §1, §2
50 μg of Dicaval C obtained in Example 3 was heated at 40° C., 60° C., 80° C., and 100° C. for 1 hour to measure antioxidative activity.

[3] = 50 μg heated at 40 °C for 1 hour
[4] = 50 μg heated at 60 °C for 1 hour
[5] = 50 μg heated at 80 °C for 1 hour
[6] = 50 μg heated at 190 °C [sic] for 1 hour

Oc1cc(O)cc(Oc2cc(O)c(O)c3c2Oc2c(O)cc(O)cc2O3)c1 [Dicaval C]
DPPH radical scavenging activity (antioxidative activity) ([1]; sample amount 10 μg): 82% | DPPH radical scavenging activity (antioxidative activity) ([1]; sample amount 20 μg): 100% | DPPH radical scavenging activity (antioxidative activity) ([1]; sample amount 100 μg): 100% | Antioxidativity (Absorb. change) [2, 3]: 0.87 | Notes (thermal stability) [2, 3]: Stable | Antioxidativity (Absorb. change) [2, 4]: 0.86 | Notes (thermal stability) [2, 4]: Stable | Antioxidativity (Absorb. change) [2, 5]: 0.89 | Notes (thermal stability) [2, 5]: Stable | Antioxidativity (Absorb. change) [2, 6]: 0.88 | Notes (thermal stability) [2, 6]: Stable

O=C1O[C@H]([C@@H](O)CO)C(O)=C1O [Ascorbic acid, reference compound]
DPPH radical scavenging activity (antioxidative activity) ([1]; sample amount 10 μg): 100% | DPPH radical scavenging activity (antioxidative activity) ([1]; sample amount 20 μg): 100% | DPPH radical scavenging activity (antioxidative activity) ([1]; sample amount 100 μg): 100%
